Reference: ChEMBL document CHEMBL1201861, “Genomics of Drug Sensitity in Cancer screening data, Wellcome Trust Sanger Institute”

Tests used:
Assay in all cases: cells
Format in all cases: functional, cell-based
Settings in all cases: Homo sapiens
COLO-800 = test system: COLO-800;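 further: growth inhibition of COLO-800 cells, read out with a cell viability assay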
Description: SANGER: Inhibition of human COLO-800 cell growth in a cell viability assay.

COR-L88 = test system: COR-L88;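 further: growth inhibition of COR-L88 cells, read out with a cell viability assay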
Description: SANGER: Inhibition of human COR-L88 cell growth in a cell viability assay.

D-263MG = test system: D-263MG
Description: SANGER: Inhibition of human D-263MG cell growth in a cell viability assay.

DMS-79 = test system: DMS-79;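 further: growth inhibition measured with a cell viability assay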
Description: SANGER: Inhibition of human DMS-79 cell growth in a cell viability assay.

DSH1 = test system: DSH1;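 further: growth inhibition of human DSH1 cells, measured with a cell viability readout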
Description: SANGER: Inhibition of human DSH1 cell growth in a cell viability assay.

EM-2 = test system: EM-2;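 further: growth inhibition of EM-2 cells, read out with a cell viability assay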
Description: SANGER: Inhibition of human EM-2 cell growth in a cell viability assay.

ES8 = test system: ES8;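 further: growth inhibition of human ES8 cells, read out with a cell viability assay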
Description: SANGER: Inhibition of human ES8 cell growth in a cell viability assay.

EW-3 = test system: EW-3;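 further: cell viability assay read-out, IC50 reflects inhibition of growth of the EW-3 cells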
Description: SANGER: Inhibition of human EW-3 cell growth in a cell viability assay.

GAK = test system: GAK;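 further: cell growth inhibition read out by a cell viability assay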
Description: SANGER: Inhibition of human GAK cell growth in a cell viability assay.

GI-ME-N = test system: GI-ME-N;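 further: growth inhibition of human GI-ME-N cells, read out with a cell viability assay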
Description: SANGER: Inhibition of human GI-ME-N cell growth in a cell viability assay.

GR-ST = test system: GR-ST
Description: SANGER: Inhibition of human GR-ST cell growth in a cell viability assay.

HAL-01 = test system: HAL-01;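 further: growth inhibition of human HAL-01 cells, read out with a cell viability assay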
Description: SANGER: Inhibition of human HAL-01 cell growth in a cell viability assay.

HCC2218 = test system: HCC2218;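 further: cell viability assay read-out, with IC50 given as the concentration that inhibits growth of the cell line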
Description: SANGER: Inhibition of human HCC2218 cell growth in a cell viability assay.

HL-60 = test system: HL-60;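 further: growth inhibition of human HL-60 cells, read out with a cell viability assay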
Description: SANGER: Inhibition of human HL-60 cell growth in a cell viability assay.

HOP-62 = test system: HOP-62;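 further: cell growth inhibition determined with a viability assay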
Description: SANGER: Inhibition of human HOP-62 cell growth in a cell viability assay.

IST-MEL1 = test system: IST-MEL1;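 further: growth inhibition of the cell line, read out with a cell viability assay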
Description: SANGER: Inhibition of human IST-MEL1 cell growth in a cell viability assay.

J-RT3-T3-5 = test system: J-RT3-T3-5;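 further: cell viability assay measuring growth inhibition of human J-RT3-T3-5 cells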
Description: SANGER: Inhibition of human J-RT3-T3-5 cell growth in a cell viability assay.

JAR = test system: JAR;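 further: growth inhibition of human JAR cells determined with a cell viability assay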
Description: SANGER: Inhibition of human JAR cell growth in a cell viability assay.

K5 = test system: K5
Description: SANGER: Inhibition of human K5 cell growth in a cell viability assay.

KALS-1 = test system: KALS-1;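 further: growth inhibition of KALS-1 cells, determined with a cell viability assay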
Description: SANGER: Inhibition of human KALS-1 cell growth in a cell viability assay.

KINGS-1 = test system: KINGS-1;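 further: cell viability assay measuring suppression of KINGS-1 cell growth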
Description: SANGER: Inhibition of human KINGS-1 cell growth in a cell viability assay.

KMOE-2 = test system: KMOE-2;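 further: growth inhibition of human KMOE-2 cells, read out with a cell viability assay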
Description: SANGER: Inhibition of human KMOE-2 cell growth in a cell viability assay.

KS-1 = test system: KS-1;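 further: growth inhibition of KS-1 cells, read out with a cell viability assay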
Description: SANGER: Inhibition of human KS-1 cell growth in a cell viability assay.

KU812 cell line = test system: KU812 cell line;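 further: growth inhibition of KU812 cells, read out with a cell viability assay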
Description: SANGER: Inhibition of human KU812 cell growth in a cell viability assay.

KY821 = test system: KY821;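 further: growth inhibition of human KY821 cells, read out by a cell viability assay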
Description: SANGER: Inhibition of human KY821 cell growth in a cell viability assay.

LB373-MEL-D = test system: LB373-MEL-D;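 further: growth inhibition of the cell line, read out in a cell viability assay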
Description: SANGER: Inhibition of human LB373-MEL-D cell growth in a cell viability assay.

LB771-HNC = test system: LB771-HNC;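 further: growth inhibition of LB771-HNC human cells, read out with a cell viability assay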
Description: SANGER: Inhibition of human LB771-HNC cell growth in a cell viability assay.

LNCaP-Clone-FGC = test system: LNCaP-Clone-FGC
Description: SANGER: Inhibition of human LNCaP-Clone-FGC cell growth in a cell viability assay.

MHH-NB-11 = test system: MHH-NB-11;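 further: growth inhibition of human MHH-NB-11 cells, read out by a cell viability assay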
Description: SANGER: Inhibition of human MHH-NB-11 cell growth in a cell viability assay.

MLMA = test system: MLMA;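 further: growth inhibition of MLMA cells (human), determined through a cell viability readout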
Description: SANGER: Inhibition of human MLMA cell growth in a cell viability assay.

MOLT-16 = test system: MOLT-16;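 further: growth inhibition of human MOLT-16 cells, read out with a cell viability assay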
Description: SANGER: Inhibition of human MOLT-16 cell growth in a cell viability assay.

MOLT-4 = test system: MOLT-4;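 further: growth inhibition of MOLT-4 cells, determined with a cell viability readout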
Description: SANGER: Inhibition of human MOLT-4 cell growth in a cell viability assay.

MPP-89 = test system: MPP-89;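 further: growth inhibition of human MPP-89 cells, read out with a cell viability assay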
Description: SANGER: Inhibition of human MPP-89 cell growth in a cell viability assay.

MS-1 = test system: MS-1;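 further: growth inhibition of MS-1 cells, read out by cell viability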
Description: SANGER: Inhibition of human MS-1 cell growth in a cell viability assay.

MSTO-211H = test system: MSTO-211H
Description: SANGER: Inhibition of human MSTO-211H cell growth in a cell viability assay.

NB10 = test system: NB10;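 further: growth inhibition of NB10 cells, read out by a cell viability assay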
Description: SANGER: Inhibition of human NB10 cell growth in a cell viability assay.

NB13 = test system: NB13;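 further: cell viability readout measuring growth inhibition of human NB13 cells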
Description: SANGER: Inhibition of human NB13 cell growth in a cell viability assay.

NCI-H1304 = test system: NCI-H1304;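 further: growth inhibition of the cancer cell line, measured in a cell viability assay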
Description: SANGER: Inhibition of human NCI-H1304 cell growth in a cell viability assay.

NCI-H1648 = test system: NCI-H1648;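 further: cell viability assay measuring inhibition of NCI-H1648 cell growth, from the Sanger screening data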
Description: SANGER: Inhibition of human NCI-H1648 cell growth in a cell viability assay.

NCI-H1650 = test system: NCI-H1650;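 further: growth inhibition of human NCI-H1650 cells measured by a cell viability assay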
Description: SANGER: Inhibition of human NCI-H1650 cell growth in a cell viability assay.

NCI-H2126 = test system: NCI-H2126;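 further: growth inhibition of the cancer cell line, determined with a cell viability readout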
Description: SANGER: Inhibition of human NCI-H2126 cell growth in a cell viability assay.

NCI-H510A = test system: NCI-H510A;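 further: growth inhibition of NCI-H510A cells, read out with a cell viability assay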
Description: SANGER: Inhibition of human NCI-H510A cell growth in a cell viability assay.

NCI-H747 = test system: NCI-H747;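 further: growth inhibition of human NCI-H747 cells, read out by a cell viability assay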
Description: SANGER: Inhibition of human NCI-H747 cell growth in a cell viability assay.

NCI-H82 = test system: NCI-H82;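 further: growth inhibition of NCI-H82 cells, measured with a cell viability readout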
Description: SANGER: Inhibition of human NCI-H82 cell growth in a cell viability assay.

SNU1 = test system: SNU1;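 further: growth inhibition of human NCI-SNU-1 cells, measured with a cell viability assay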
Description: SANGER: Inhibition of human NCI-SNU-1 cell growth in a cell viability assay.

SNU-5 = test system: SNU-5;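 further: cell viability readout used to measure growth inhibition in human NCI-SNU-5 cells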
Description: SANGER: Inhibition of human NCI-SNU-5 cell growth in a cell viability assay.

OCUB-M = test system: OCUB-M;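 further: growth inhibition of the cancer cell line, read out through a cell viability assay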
Description: SANGER: Inhibition of human OCUB-M cell growth in a cell viability assay.

OS-RC-2 = test system: OS-RC-2;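 further: growth inhibition of human OS-RC-2 cells, measured by a cell viability assay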
Description: SANGER: Inhibition of human OS-RC-2 cell growth in a cell viability assay.

SCC-15 = test system: SCC-15;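 further: growth inhibition of SCC-15 cells, read out with a cell viability assay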
Description: SANGER: Inhibition of human SCC-15 cell growth in a cell viability assay.

SF-539 = test system: SF-539;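 further: Read-out is a cell viability assay, with IC50 reflecting inhibition of cell growth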
Description: SANGER: Inhibition of human SF539 cell growth in a cell viability assay.

SK-NEP-1 = test system: SK-NEP-1;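 further: growth inhibition of human SK-NEP-1 cells, read out by a cell viability assay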
Description: SANGER: Inhibition of human SK-NEP-1 cell growth in a cell viability assay.

SK-UT-1 = test system: SK-UT-1;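 further: growth inhibition of SK-UT-1 cells, measured by a cell viability assay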
Description: SANGER: Inhibition of human SK-UT-1 cell growth in a cell viability assay.

8-MG-BA = test system: 8-MG-BA
Description: SANGER: Inhibition of human 8-MG-BA cell growth in a cell viability assay.

A3-KAW = test system: A3-KAW
Description: SANGER: Inhibition of human A3-KAW cell growth in a cell viability assay.

ALL-PO = test system: ALL-PO
Description: SANGER: Inhibition of human ALL-PO cell growth in a cell viability assay.

AM-38 = test system: AM-38
Description: SANGER: Inhibition of human AM-38 cell growth in a cell viability assay.

BT-474 = test system: BT-474
Description: SANGER: Inhibition of human BT-474 cell growth in a cell viability assay.

BV-173 = test system: BV-173
Description: SANGER: Inhibition of human BV-173 cell growth in a cell viability assay.

Becker = test system: Becker
Description: SANGER: Inhibition of human Becker cell growth in a cell viability assay.

C8166 = test system: C8166
Description: SANGER: Inhibition of human C8166 cell growth in a cell viability assay.

TE-5 = test system: TE-5
Description: SANGER: Inhibition of human TE-5 cell growth in a cell viability assay.

TE-9 = test system: TE-9
Description: SANGER: Inhibition of human TE-9 cell growth in a cell viability assay.

U-266 = test system: U-266
Description: SANGER: Inhibition of human U-266 cell growth in a cell viability assay.

VA-ES-BJ = test system: VA-ES-BJ
Description: SANGER: Inhibition of human VA-ES-BJ cell growth in a cell viability assay.

no-10 = test system: no-10
Description: SANGER: Inhibition of human no-10 cell growth in a cell viability assay.

COc1cc(C)c(Sc2cnc(NC(=O)c3ccc(CNC(C)C(C)(C)C)cc3)s2)cc1C(=O)N1CCN(C(C)=O)CC1 (stereo not given)
IC50 (COLO-800): > 10200 nM | IC50 (COR-L88): > 10200 nM | IC50 (D-263MG): > 10200 nM | IC50 (DMS-79): > 10200 nM | IC50 (DSH1): > 10200 nM | IC50 (EM-2): > 10200 nM | IC50 (ES8): > 10200 nM | IC50 (EW-3): 8570 nM | IC50 (GAK): > 10200 nM | IC50 (GI-ME-N): 4300 nM | IC50 (GR-ST): > 10200 nM | IC50 (HAL-01): > 10200 nM | IC50 (HCC2218): > 10200 nM | IC50 (HL-60): > 10200 nM | IC50 (HOP-62): > 10200 nM | IC50 (IST-MEL1): > 10200 nM | IC50 (J-RT3-T3-5): > 10200 nM | IC50 (JAR): > 10200 nM | IC50 (K5): > 10200 nM | IC50 (KALS-1): > 10200 nM | IC50 (KINGS-1): > 10200 nM | IC50 (KMOE-2): > 10200 nM | IC50 (KS-1): 1210 nM | IC50 (KU812 cell line): 8970 nM | IC50 (KY821): > 10200 nM | IC50 (LB373-MEL-D): > 10200 nM | IC50 (LB771-HNC): > 10200 nM | IC50 (LNCaP-Clone-FGC): > 10200 nM | IC50 (MHH-NB-11): > 10200 nM | IC50 (MLMA): > 10200 nM | IC50 (MOLT-16): 4750 nM | IC50 (MOLT-4): > 10200 nM | IC50 (MPP-89): > 10200 nM | IC50 (MS-1): > 10200 nM | IC50 (MSTO-211H): > 10200 nM | IC50 (NB10): > 10200 nM | IC50 (NB13): > 10200 nM | IC50 (NCI-H1304): > 10200 nM | IC50 (NCI-H1648): > 10200 nM | IC50 (NCI-H1650): > 10200 nM | IC50 (NCI-H2126): > 10200 nM | IC50 (NCI-H510A): > 10200 nM | IC50 (NCI-H747): 3860 nM | IC50 (NCI-H82): > 10200 nM | IC50 (SNU1): > 10200 nM | IC50 (SNU-5): > 10200 nM | IC50 (OCUB-M): > 10200 nM | IC50 (OS-RC-2): 8900 nM | IC50 (SCC-15): > 10200 nM | IC50 (SF-539): > 10200 nM | IC50 (SK-NEP-1): > 10200 nM | IC50 (SK-UT-1): > 10200 nM | IC50 (8-MG-BA): > 10200 nM | IC50 (A3-KAW): > 10200 nM | IC50 (ALL-PO): > 10200 nM | IC50 (AM-38): > 10200 nM | IC50 (BT-474): > 10200 nM | IC50 (BV-173): > 10200 nM | IC50 (Becker): > 10200 nM | IC50 (C8166): > 10200 nM | IC50 (TE-5): > 10200 nM | IC50 (TE-9): > 10200 nM | IC50 (U-266): > 10200 nM | IC50 (VA-ES-BJ): > 10200 nM | IC50 (no-10): > 10200 nM

Cc1nc(Nc2ncc(C(=O)Nc3c(C)cccc3Cl)s2)cc(N2CCN(CCO)CC2)n1 [DASATINIB]
IC50 (COLO-800): > 1280 nM | IC50 (COR-L88): > 1280 nM | IC50 (D-263MG): 362 nM | IC50 (DMS-79): > 1280 nM | IC50 (DSH1): 240 nM | IC50 (EM-2): < 5 nM | IC50 (ES8): > 1280 nM | IC50 (EW-3): > 1280 nM | IC50 (GAK): […] | IC50 (GI-ME-N): 61.2 nM | IC50 (GR-ST): > 1280 nM | IC50 (HAL-01): > 1280 nM | IC50 (HCC2218): > 1280 nM | IC50 (HL-60): > 1280 nM | IC50 (HOP-62): 18.3 nM | IC50 (IST-MEL1): 135 nM | IC50 (J-RT3-T3-5): > 1280 nM | IC50 (JAR): > 1280 nM | IC50 (K5): 165 nM | IC50 (KALS-1): 94.9 nM | IC50 (KINGS-1): 167 nM | IC50 (KMOE-2): > 1280 nM | IC50 (KS-1): 27.3 nM | IC50 (KU812 cell line): 119 nM | IC50 (KY821): > 1280 nM | IC50 (LB373-MEL-D): 825 nM | IC50 (LB771-HNC): > 1280 nM | IC50 (LNCaP-Clone-FGC): > 1280 nM | IC50 (MHH-NB-11): > 1280 nM | IC50 (MLMA): 140 nM | IC50 (MOLT-16): > 1280 nM | IC50 (MOLT-4): > 1280 nM | IC50 (MPP-89): 40.5 nM | IC50 (MS-1): > 1280 nM | IC50 (MSTO-211H): > 1280 nM | IC50 (NB10): > 1280 nM | IC50 (NB13): > 1280 nM | IC50 (NCI-H1304): > 1280 nM | IC50 (NCI-H1648): 20.1 nM | IC50 (NCI-H1650): > 1280 nM | IC50 (NCI-H2126): > 1280 nM | IC50 (NCI-H510A): > 1280 nM | IC50 (NCI-H747): 83.6 nM | IC50 (NCI-H82): > 1280 nM | IC50 (SNU1): > 1280 nM | IC50 (SNU-5): > 1280 nM | IC50 (OCUB-M): 1040 nM | IC50 (OS-RC-2): 20.3 nM | IC50 (SCC-15): > 1280 nM | IC50 (SF-539): > 1280 nM | IC50 (SK-NEP-1): > 1280 nM | IC50 (SK-UT-1): > 1280 nM | IC50 (8-MG-BA): 155 nM | IC50 (A3-KAW): 985 nM | IC50 (ALL-PO): > 1280 nM | IC50 (AM-38): > 1280 nM | IC50 (BT-474): > 1280 nM | IC50 (BV-173): < 5 nM | IC50 (Becker): 30 nM | IC50 (C8166): > 1280 nM | IC50 (TE-5): > 1280 nM | IC50 (TE-9): 875 nM | IC50 (U-266): > 1280 nM | IC50 (VA-ES-BJ): 39 nM | IC50 (no-10): 319 nM
